This test addresses T1, menin/MLL (terbium chelate-labeled menin, FITC-MBM1 peptide) (Homo sapiens, UniProt O00255, T541A).
T1 construct: Menin (a.a 1-610-6xhis tag, 2.3 mg/mL in 20 mM Hepes)
T1 sequence (O00255 with tags, fused parts or gaps T541A): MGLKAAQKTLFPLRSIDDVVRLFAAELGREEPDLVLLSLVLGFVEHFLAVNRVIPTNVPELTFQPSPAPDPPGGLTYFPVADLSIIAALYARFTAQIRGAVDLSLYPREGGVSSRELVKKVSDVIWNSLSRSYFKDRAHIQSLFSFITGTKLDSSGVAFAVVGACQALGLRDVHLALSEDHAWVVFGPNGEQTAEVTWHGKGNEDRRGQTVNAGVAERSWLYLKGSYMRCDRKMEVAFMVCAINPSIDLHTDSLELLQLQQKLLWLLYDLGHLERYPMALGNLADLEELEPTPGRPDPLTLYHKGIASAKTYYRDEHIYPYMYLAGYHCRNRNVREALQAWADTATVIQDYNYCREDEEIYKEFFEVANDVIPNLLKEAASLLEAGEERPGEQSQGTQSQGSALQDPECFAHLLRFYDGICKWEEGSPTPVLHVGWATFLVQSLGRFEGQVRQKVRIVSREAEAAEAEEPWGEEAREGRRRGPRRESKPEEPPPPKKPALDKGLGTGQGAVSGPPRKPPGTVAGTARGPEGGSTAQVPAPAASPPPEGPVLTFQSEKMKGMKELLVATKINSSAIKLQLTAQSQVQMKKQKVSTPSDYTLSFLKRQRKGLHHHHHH
The test is described as follows: Menin/MLL homogenous time-resolved fluorescence (HTRF) assay. Format: binding. The note with it: 30 min incubation. The method, boiled down:
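Terbium-labeled menin (a.a. 1-610, His-tagged; […]) pre-incubated 30 min with compound, then 75 nM FITC-MBM1 peptide added for 15 min at ambient temperature in Tris pH 7.5 buffer, 0.5% DMSO. HTRF 520/490 nm ratio read; IC50 from 11-point four-fold titrations, typically from 10 μM.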
(Time-resolved FRET reads energy transfer from a long-lived donor to a nearby acceptor.)

In turn, `Cc1cncc2c1c(C[C@@H]1CCN([C@H](CO)C3CCCOC3)C1)cn2-c1ccc(F)cc1C(=O)N(C)C(C)C` (single isomer, unassigned) [Compound 198b] came in with an IC50 of 0.085 nM.

On to `Cc1cncc2c1c(CC1CCN(CC3CCN(C(=O)C(C)(C)O)CC3)C1)cn2-c1ccc(F)cc1C(=O)N(C)C(C)C` (single isomer, unassigned) [Compound 125], for which the IC50 is 0.027 nM.

Consider `Cc1cncc2c1c(C[C@@H]1CCN(CC3CCC(O)CC3)C1)cn2-c1ccc(F)cc1C(=O)N(C)C(C)C` (single isomer, unassigned) [Compound 205b], for which the IC50 was 0.035 nM.

As to `CC(=O)N1CCN(CCCC(C(C)C)N2CC[C@@H](Cc3cn(-c4ccc(F)cc4C(=O)N(C)C(C)C)c4cncc(C)c34)C2)CC1` (mixture of isomers) [Compound 8], the IC50 came to 0.365 nM.

`Cc1cncc2c1c(CC1CN(CC3CCNC(=O)CC3)C1)cn2-c1ccc(F)cc1C(=O)N(C)C(C)C` (centres unmarked) [Compound 104]: the IC50 is 0.147 nM.

For `CC(=O)N1C[C@@H]2CN([C@H]3C[C@@H](C(C(C)C)N4CC[C@H](Cc5cn(-c6ccc(F)cc6C(=O)N(C)C(C)C)c6cncc(C)c56)C4)C3)C[C@H]2C1` (mixture of isomers) [Compound 21], the IC50 stood at 0.052 nM.

With `CC(=O)N1CC2CC(C1)C2N1CC[C@H](Cc2cn(-c3ccc(F)cc3C(=O)N(C)C(C)C)c3cncc(C)c23)C1` (some centres unmarked) [Compound 208], the IC50 was 0.147 nM.

For `CC(=O)N1CCC(CN2CC[C@@H](Cc3cn(-c4ccc(F)cc4C(=O)N4CCC[C@H]4C)c4cncc(C)c34)C2)CC1` [Compound 315], the IC50 amounted to 0.071 nM.

`Cc1cncc2c1c(CC1CCN(CC3CCN(C(=O)[C@@H](C)O)CC3)C1)cn2-c1ccc(F)cc1C(=O)N(C)C(C)C` (single isomer, unassigned) [Compound 85] displayed an IC50 of 0.113 nM.

For the compound `Cc1cncc2c1c(C[C@@H]1CCN(C[C@@H]3CCOC3)C1)cn2-c1ccc(F)cc1C(=O)N(C)C(C)C` (single isomer, unassigned) [Compound 190b], the midpoint of inhibition, the IC50, lay at 0.063 nM.

Take `CN=S(=O)(c1cc(F)ccc1-n1cc(CC2CCN(CC3CCN(C(C)=O)CC3)C2)c2c(C)cncc21)C(C)C` (centres unmarked) [Compound 128]: the IC50 was determined as 0.078 nM.

`CC(=O)N1CCC(C)(CN2CC(Cc3cn(-c4ccc(F)cc4C(=O)N(C)C(C)C)c4cncc(C)c34)C2)CC1` [Compound 84] came in with an IC50 of 0.075 nM.

In turn, `CCC([C@H]1C[C@@H](N2CCN(C(C)=O)CC2)C1)N1CC[C@@H](Cc2cn(-c3ccc(F)cc3C(=O)N(C)C(C)C)c3cncc(C)c23)C1` (mixture of isomers) [Compound 24] returned an IC50 of 0.057 nM.

In the case of `Cc1cncc2c1c(CC1CCN(CC3CCC(=O)N(C)CC3)C1)cn2-c1ccc(F)cc1C(=O)N(C)C(C)C` (single isomer, unassigned) [Compound 184b], it took 0.065 nM to reach half-maximal inhibition (IC50).

As to `CC(=O)NC1CCC(N2CC[C@@H](Cc3cn(-c4ccc(F)cc4C(=O)N(C)C(C)C)c4cncc(C)c34)C2)CC1` (some centres unmarked) [Compound 201], the IC50 came to 0.063 nM.

`COCCN(C)CCCC(C(C)C)N1CC[C@H](Cc2cn(-c3ccc(F)cc3C(=O)N(C)C(C)C)c3cncc(C)c23)C1` (single isomer, unassigned) [Compound 2] gave an IC50 of 0.049 nM.

Turning to `CC(=O)N1C[C@@H]2CN(CCC[C@H](C(C)C)N3CC[C@H](Cc4cn(-c5ccc(F)cc5C(=O)N(C)C(C)C)c5cncc(Cl)c45)C3)C[C@H]2C1` (single isomer, unassigned) [Compound 19a], the IC50 was found to be 0.032 nM.

`Cc1cncc2c1c(C[C@@H]1CCN(CC3CCN(C(N)=O)CC3)C1)cn2-c1ccc(F)cc1C(=O)N(C)C(C)C` [Compound 207] showed an IC50 of 0.016 nM.

With `CNC(=O)[C@H]1CC[C@@H](CN2CC[C@@H](Cc3cn(-c4ccc(F)cc4C(=O)N(C)C(C)C)c4cncc(C)c34)C2)CC1` [Compound 185], the IC50 was determined as 0.097 nM.

Turning to `CN=S(=O)(c1cc(F)ccc1-n1cc(CC2CCN(CC3CCOCC3)C2)c2c(C)cncc21)C(C)C` (single isomer, unassigned) [Compound 77d], the IC50 turned out to be 0.208 nM.

`CC(=O)N1CCN(CCCC(C(C)C)N2CCC(Cc3cn(-c4ccc(F)cc4C(=O)N(C)C(C)C)c4cncc(C)c34)C2)CC1` (single isomer, unassigned) [Compound 9a] showed an IC50 of 0.016 nM.

In turn, `CC(=O)N1CCC(CN2CC[C@@H](Cc3cn(-c4ccc(F)cc4C(=O)N4CCC[C@@H]4C)c4cncc(C)c34)C2)CC1` [Compound 319] came in with an IC50 of 0.293 nM.

`CC(=O)N1CCC(CCN2CC[C@@H](Cc3cn(-c4ccc(F)cc4C(=O)N(C)C(C)C)c4cncc(C)c34)C2)CC1` [Compound 189] gave an IC50 of 0.544 nM.

In the case of `Cc1cncc2c1c(CC1CN(CC3CCOCC3)C1)cn2-c1ccc(F)cc1C(=O)N1CCC[C@H]1C` [Compound 279], the IC50 turned out to be 0.025 nM.

As to `Cc1cncc2c1c(CC1CN(CC3CCOCC3)C1)cn2-c1ccc(F)cc1C(=O)N1CCCC1CO` (centres unmarked) [Compound 268], the IC50 was 0.149 nM.

Regarding `Cc1cncc2c1c(C[C@@H]1CCN(CC3CCNC(=O)CC3)C1)cn2-c1ccc(F)cc1C(=O)N(C)C(C)C` (mixture of isomers) [Compound 169], half-maximal inhibition (IC50) required 0.061 nM.

As for `Cc1cncc2c1c(CC1CN(C[C@H]3CCOC3)C1)cn2-c1ccc(F)cc1C(=O)N(C)C(C)C` (single isomer, unassigned) [Compound 191a], the IC50 came out at 0.056 nM.

`Cc1cncc2c1c(CC1CN(CC3CCOCC3)C1)cn2-c1ccc(F)cc1C(=O)N1CCC2CC21` (centres unmarked) [Compound 262] yielded an IC50 of 0.018 nM.

Regarding `COCCN(C)CCCC(C(C)C)N1CC[C@@H](Cc2cn(-c3ccc(F)cc3C(=O)N(C)C(C)C)c3cncc(Cl)c23)C1` (some centres unmarked) [Compound 3], the IC50 is 0.026 nM.

Compound `COC(=O)[C@H]1CC[C@@H](CN2CC[C@@H](Cc3cn(-c4ccc(F)cc4C(=O)N(C)C(C)C)c4cncc(C)c34)C2)CC1` [Compound 153] displayed an IC50 of 0.077 nM.

Turning to `Cc1cncc2c1c(CC1CN(CC3CCC(O)CC3)C1)cn2-c1ccc(F)cc1C(=O)N(C)C(C)C` (centres unmarked) [Compound 144], inhibition was half-maximal at 0.072 nM (IC50).

With `CC(=O)N1CCC(N2CC[C@H](Cc3cn(-c4ccc(F)cc4C(=O)N(C)C(C)C)c4cncc(C)c34)C2)CC1` (single isomer, unassigned) [Compound 81], half-maximal inhibition (IC50) was put at 0.425 nM.

`CC(=O)N1CCC([C@H](CO)N2CC[C@@H](Cc3cn(-c4ccc(F)cc4C(=O)N(C)C(C)C)c4cncc(C)c34)C2)CC1` (single isomer, unassigned) [Compound 206a] gave an IC50 of 0.045 nM.

Regarding `CNC(=O)c1cncc(N2CCC(N3CC(Cc4cn(-c5ccc(F)cc5C(=O)N(C)C(C)C)c5cncc(C)c45)C3)CC2)n1` [Compound 75], the concentration for half-maximal inhibition (IC50) worked out at 0.059 nM.

Regarding `Cc1cncc2c1c(C[C@@H]1CCN(C[C@H]3CCCCN3)C1)cn2-c1ccc(F)cc1C(=O)N(C)C(C)C` [Compound 199], the IC50 amounted to 0.327 nM.

Usually IC50 stands for the point on the concentration scale where inhibition reaches its midpoint. The low end stands for higher potency, the high end for lower potency.
